In patent US20250320458A1, “CARDIOMYOCYTE SUBTYPES AND METHODS OF MAKING AND USING” (University Health Network, priority 2021, published 2025):

Tests used:
Format in all cases: cell-based, human
[1] = system: day 4 pSHF cells (ALDH CXCR4−); assay: Retinol treatment of isolated day 4 pSHF cells, RT-qPCR of progenitor markers; details: retinol 2 μM vs DMSO, 24 hours
Protocol: (§1) At day 1, the EBs were transferred to mesoderm induction media consisting of base media, 5 ng/mL rhbFGF (R&D), and various concentration of rhBMP4 (R&D) and rhActivinA (R&D) as described in the results section. At day 3, the EBs were transferred to the media consisting of base media, 2 μM Wnt inhibitor IWP2 (TOCRIS) and 10 ng/ml rhVEGF (R&D). From day 5 to day 12, the EBs were transferred to base media with 5 ng/mL rhVEGF. From day 12 to day 20, the EBs were transferred to base media and cultured in a normoxic environment (5% CO2, 20% O2). For pSHF lineage differentiation, the day 4 sorted pSHF cells were treated with 2 μM Retinol (Sigma) from day 4 to day 8. Similarly, the sorted aSHF cells were treated with 2 μM Retinol and 10 ng/mL rhBMP4 from day 5 to day 8 of differentiation.
RNA extraction was performed using the RNAqueous-micro Kit (Invitrogen). Purified RNA was treated with RNase-free DNase (Invitrogen), and then reverse transcribed into cDNA using oligo (dT) primers and random hexamers and iscript Reverse Transcriptase (ThermoFisher). QRT-PCR was performed on an EP Real-Plex MasterCycler (Eppendorf) using QuantiFast SYBR Green PCR kit (QIAGEN). The copy number of each gene was determined based on a standard curve plotted with human genome DNA with known copy number. The relative expression levels of genes were obtained by normalizing their copy number to that of TBP. […]

[2] = system: day 5 aSHF cells; assay: Retinol treatment of day 5 aSHF cells, RT-qPCR of RA-responsive genes; details: ROH for 24 hours vs DMSO, RT-qPCR day 6 (FIG. 4J)
Protocol: as §1, with “Similarly, the sorted aSHF cells were treated with 2 μM Retinol and 10 ng/mL rhBMP4 from day 5 to day 8 of differentiation.” left out
RNA extraction was performed using the RNAqueous-micro Kit (Invitrogen). […] QRT-PCR was performed on an EP Real-Plex MasterCycler (Eppendorf) using QuantiFast SYBR Green PCR kit (QIAGEN). The copy number of each gene was determined based on a standard curve plotted with human genome DNA with known copy number. […]
The pSHF lineage expressed ALDH1A2 and RDH10, from the day 3 mesoderm stage onward, whereas expression of these genes was not detected until day 4 of differentiation in the aSHF lineage (FIG. 4G). These patterns correlate well with ALDH activity, which was detected in more than 90% of the days 4 and 5 pSHF cells. […] ALDH was not detected in the day 5 FHF population. […]

[3] = system: aSHF progenitors; assay: BMP pathway agonist/antagonist treatment of day 5 aSHF progenitors, RT-qPCR 24 hours after treatment; details: for expression of genes indicative of aSHF (FGF8 and ISL1), pSHF (HOXB1) and FHF (HAND1) fates in the aSHF population: 10 ng/mL BMP4 or 0.1 μM LDN, ROH added, 24 hours after treatment (FIG. 5C)
Protocol: (§2) RNA extraction was performed using the RNAqueous-micro Kit (Invitrogen). Purified RNA was treated with RNase-free DNase (Invitrogen), and then reverse transcribed into cDNA using oligo (dT) primers and random hexamers and iscript Reverse Transcriptase (ThermoFisher). QRT-PCR was performed on an EP Real-Plex MasterCycler (Eppendorf) using QuantiFast SYBR Green PCR kit (QIAGEN). The copy number of each gene was determined based on a standard curve plotted with human genome DNA with known copy number. The relative expression levels of genes were obtained by normalizing their copy number to that of TBP.
(§3) The above observation that the aSHF progenitors express genes involved in Bmp signaling is consistent with the known role of this pathway in the development of right ventricular cardiomyocytes from aSHF progenitors in the mouse. […] The notable exception is the genes for the ligands BMP2 and BMP4, which are also highly expressed in the FHF lineage (FIG. 5B). To determine if BMP plays a role in the differentiation of the aSHF progenitors to derivative lineages, the day 5 cells were treated with either a pathway agonist (10 ng/mL BMP4) or antagonist (0.1 μM LDN) and then the population was analyzed 24 hours after the treatments. FHF and pSHF progenitors were included in the analyses, and ROH was added to the cultures of pSHF and aSHF progenitor, given that both populations display ALDH activity. […] Inhibition of the pathway did, however, lead to upregulation of genes associated with pharyngeal progenitors (FOXC2 and SIX1) (FIG. 5D) and downregulation of those indicative of cardiomyocyte development (UNC45B and GATA4) (FIG. 5E). To further investigate the consequences of BMP manipulation, the agonist/antagonist treatment was extended for an additional 48 hours and then the treated cells were cultured for 12 days to promote cardiomyocyte development. FHF and pSHF progenitors also were cultured for 20 days without manipulation of BMP signaling. All 3 progenitor populations generated TNNT2^+/SIRPa^+ cardiomyocytes by day 20 of differentiation (FIGS. 5F and 5G). In addition to the cardiomyocytes, the aSHF-derived population also contained PDGFR-beta^+ mesenchymal cells (FIG. 5F).

[4] = system: aSHF progenitors; assay: Extended BMP agonist/antagonist treatment of aSHF progenitors, day 20 flow cytometry and cell numbers; details: treatment extended additional 48 hours, then cultured 12 days; day 20 (FIGS. 5F and 5H)
Protocol: Cells of early stages (day 3 to day 6) were dissociated with TrypLE for 3-5 minutes at room temperature to single cells, which were then filtered and transferred to IMDM media. Day 20 EBs were dissociated with 0.5 mg/ml collagenase type 2 (Worthington) in HANKs buffer for 1.5 hours at 37° C. The filtered day 20 cells were then transferred to FACS buffer consisting of PBS with 5% fetal calf serum (Wisent) and 0.02% sodium azide. The following antibodies were used for staining samples obtained from various stages of differentiation: anti-PDGFRa-PE (R&D Systems, 1:20), anti-CD235a/b-APC (BD PharMingen, 1:200), anti-SIRPa-PeCy7 (Biolegend, 1:2000), anti-CXCR4 (Biolegend, 1:100), anti-CDId-PE (Biolegend, 1:100), anti-CD49c-PE (ThermoFisher, 1:100), anti-cardiac isoform of CTNT (ThermoFisher Scientific, 1:2000), or anti-myosin light chain 2 (Abcam, 1:1000). For unconjugated primary antibodies, the following secondary antibodies were used for detection: goat anti-mouse IgG-APC (BD Pharmigen, 1:250), or donkey anti-rabbit IgG-PE (Jackson ImmunoResearch, 1:250). Detailed antibody information is described in Table 2.
To stain live cells with cell-surface protein, dissociated single cells were stained for 15 minutes at room temperature in FACS buffer and washed twice before they were subject to further analyses. For intracellular staining, cells were fixed for 15 min at 4° C. in PBS containing 4% PFA followed by permeabilization using 90% methanol for 15 min at 4° C. The permeabilized cells were washed with PBS containing 0.5% BSA (Sigma) twice and stained with unconjugated primary antibodies in FACS buffer for 18 hours at 4° C. Stained cells were washed with PBS with 0.5% BSA and stained with proper secondary antibodies in FACS buffer for 30 mins at 4° C. Following washing steps, stained cells were processed with the Fortessa (BD) and analyzed using FlowJo software (Tree Star). For cell sorting, stained cells were kept in StemPro-34 media and sorted using Influx (BD), FACSAriall (BD), MoFlo-XDP (BD) and FACSAria Fusion (BD). Data were analyzed using FlowJo software (Tree Star).
as §3, with “All 3 progenitor populations generated TNNT2^+/SIRPa^+ cardiomyocytes by day 20 of differentiation (FIGS. 5F and 5G). In addition to the cardiomyocytes, the aSHF-derived population also contained PDGFR-beta^+ mesenchymal cells (FIG. 5F).” left out

[5] = system: aSHF cells; assay: Extended BMP agonist/antagonist treatment of aSHF cells, day 20 RT-qPCR; details: aSHF cells treated with LDN
Protocol: as §2
The above observation that the aSHF progenitors express genes involved in Bmp signaling is consistent with the known role of this pathway in the development of right ventricular cardiomyocytes from aSHF progenitors in the mouse. […] The notable exception is the genes for the ligands BMP2 and BMP4, which are also highly expressed in the FHF lineage (FIG. 5B). To determine if BMP plays a role in the differentiation of the aSHF progenitors to derivative lineages, the day 5 cells were treated with either a pathway agonist (10 ng/mL BMP4) or antagonist (0.1 μM LDN) and then the population was analyzed 24 hours after the treatments. […]

Molecule	expression of the RA responsive gene CYP26A1 and the pSHF progenitor markers HOXA1 and HOXB1 ([1]; RT-qPCR (FIG. 3H))	expression of aSHF progenitor markers FGF10, FOXC1 and FOXC2 ([1]; RT-qPCR (FIG. 3I))	expression of the RA-responsive gene CYP26A1 and HOXB1 [2]	expression of genes indicative of aSHF (FGF8 and ISL1), pSHF (HOXB1) and FHF (HAND1) fates in the aSHF population [3]	expression of genes associated with pharyngeal progenitors (FOXC2 and SIX1) ([3]; 0.1 μM LDN, 24 hours after treatment (FIG. 5D))	expression of genes indicative of cardiomyocyte development (UNC45B and GATA4) ([3]; 0.1 μM LDN, 24 hours after treatment (FIG. 5E))	PDGFR-beta+ cells in the aSHF-derived population (number / size of fraction) [4]	proportion of cardiomyocytes in the aSHF-derived population [4]	expression of the ventricular cardiomyocyte markers IRX4 and MY1.2 [5]	levels of PDGFRB [5]	number of cardiomyocytes in the aSHF-derived population [4]
CC1=C(/C=C/C(C)=C/C=C/C(C)=C/CO)C(C)(C)CCC1 [ROH, Retinol]	upregulation	downregulated	upregulation	–	–	–	–	–	–	–	–
c1ccc2c(-c3cnn4cc(-c5ccc(N6CCNCC6)cc5)cnc34)ccnc2c1 [LDN, LDN 193189]	–	–	–	did not alter	upregulation	downregulation	increased	reduced	decrease	elevated	–
BMP4: Recombinant human BMP4 (R&D), BMP pathway agonist (protein, UniProt P12644 293-408, looked up) Bone morphogenetic protein 4: SPKHHSQRARKKNKNCRRHSLYVDFSDVGWNDWIVAPPGYQAFYCHGDCPFPLADHLNSTNHAIVQTLVNSVNSSIPKACCVPTELSAISMLYLDEYDKVVLKNYQEMVVEGCGCR	–	–	–	did not alter	–	–	reducing	increased	–	–	increased
